Test results published in US20260207605A1, “KRAS G12D INHIBITORS AND USES THEREOF” (Abbisko Therapeutics Co., Ltd., priority 2022, published 2026).

Assay: in vivo
Details: male, ICR, mouse

With C#Cc1c(F)ccc2cc(N)cc(-c3ncc4c(N5C[C@H]6CC[C@@H](C5)N6)nc(OC[C@@]56CCCN5C/C(=C\F)C6)nc4c3F)c12 [Reference Compound 4, 4-(4-((1R,5S)-3,8-diazabicyclo [3.2.1]octan-3-yl)-8-fluoro-2-(((S,Z)-2-(fluoromethylene)tetrahydro-1H-pyrrolizin-7a(5H)-yl)methoxy)pyrido[4,3-d]pyrimidin-7-yl)-5-ethynyl-6-fluoronaphthalen-2-amine] the AUC (iv, 2 mg/kg) was 163 ng·h/mL, the Cmax (iv, 2 mg/kg) was 104 ng/mL and the half-life (iv, 2 mg/kg) was 8.4 h. For the same compound, the AUC (po, 10 mg/kg) was 52.8 ng·h/mL, the Cmax (po, 10 mg/kg) was 14.8 ng/mL and the bioavailability (po, 10 mg/kg) was 6.5%. The half-life (po, 10 mg/kg) was 4.6 h.
